Data reported in US12473270B2, “CB1R receptor blockers with acyclic backbones” (YISSUM RESEARCH DEVELOPMENT COMPANY OF THE HEBREW …, priority 2019, dated 2025).
Read-outs that look alike come from different tables or passages of the source.

Experiments:
[1] = tested on: mice with diet-induced obesity (DIO); test: Glycemic control (ipGTT, ipIST, glucose, insulin) in DIO mice; type: in vivo, mouse; settings: for HFD-induced glucose intolerance / HFD-induced hyperglycemia: DIO mice, 10 mg/kg/d ip
Procedure: Glucose tolerance (ipGTT) test and insulin sensitivity tests (ipIST). Mice that fasted overnight were injected with glucose (1.5 g/kg, ip), followed by a tail blood collection at 0, 15, 30, 45, 60, 90, and 120 minutes. Blood glucose levels were determined using the Elite glucometer (Bayer, Pittsburgh, PA). On the following day, mice were fasted for 6 h before receiving insulin (0.75 U/kg, i.p.; Eli Lilly, […], USA or Actrapid® vial, novo nordisk A/S, Denmark), and blood glucose levels were determined at the same intervals as above.
(§1) Blood and urine biochemistry. Serum and urine levels of creatinine as well as serum levels of ALT, AST, ALP, HDL, LDL, TG and cholesterol were determined by using the Cobas C-111 chemistry analyzer (Roche, Switzerland). Creatinine clearance was calculated using urine and serum creatinine levels (CCr mL/h=Urine creatinine mg/dL×Urine volume/Serum creatinine mg/dL×24 hrs). Serum insulin levels were measured by an ELISA kit (Crystal Chem, Inc., Downers Grove, IL, USA). Fasting blood glucose was measured using the Elite glucometer (Bayer, Pittsburgh, PA).

[2] = tested on: mice with diet-induced obesity (DIO); test: Body weight, adiposity and food intake in diet-induced obese mice; type: in vivo, mouse
From the text: Mice. The experimental protocol used was approved by the Institutional Animal Care and Use Committee of the Hebrew University, which is an AAALAC International accredited institute. Male 6 week old C57Bl/6J mice were obtained from Harlan Laboratories. Mice were maintained under a 12-h light/dark cycle and fed ad libitum. To generate diet-induced obesity, C57Bl6/J mice were fed either a high-fat diet (HFD) (60% of calories from fat, 20% from protein, and 20% from carbohydrates; Research Diet, D12492) or a standard laboratory diet (STD, 14% fat, 24% protein, 62% carbohydrates; NIH-31 rodent diet) for 14 weeks.
Age-matched control mice on STD received vehicle daily. Body weight and food intake were monitored daily. Total body fat and lean masses were determined by EchoMRI-100H™ (Echo Medical Systems LLC, Houston, TX, USA). 24 h urine was collected one week before euthanasia using mouse metabolic cages (CCS2000 Chiller System, Hatteras Instruments, NC, USA). At weeks 20 mice were euthanized by a cervical dislocation under anesthesia, the kidneys, brain, liver, fat pads, and muscles were removed and weighed, and samples were either snap-frozen or fixed in buffered 4% formalin Trunk blood was collected for determining the biochemical parameters.

[3] = tested on: mice with diet-induced obesity (DIO); test: Multi-parameter metabolic assessment (indirect calorimetry) in DIO mice; type: in vivo, mouse; settings: for HFD-induced reduction in VO2 / HFD-induced reduction in fat oxidation / HFD-induced reduction in total energy expenditure: DIO mice, 10 mg/kg/d ip
Procedure: Multi-parameter metabolic assessment. Metabolic profile of the mice was assessed by using the Promethion High-Definition Behavioral Phenotyping System (Sable Instruments, Inc., Las Vegas, NV, USA). Data acquisition and instrument control were performed using MetaScreen software version 2.2.18.0, and the obtained raw data were processed using ExpeData version 1.8.4 using an analysis script detailing all aspects of data transformation. Mice with free access to food and water were subjected to a standard 12 h light/12 h dark cycle, which consisted of a 48 h acclimation period followed by 24 h of sampling. Respiratory gases were measured by using the GA-3 gas analyzer (Sable Systems, Inc., Las Vegas, NV, USA) using a pull-mode, negative-pressure system. Air flow was measured and controlled by FR-8 (Sable Systems, Inc., Las Vegas, NV, USA), with a set flow rate of 2000 mL/min. Water vapor was continuously measured and its dilution effect on O2 and CO2 was mathematically compensated. Effective mass was calculated by [body mass]^0.75. Fat oxidation (FO) and carbohydrate oxidation (CHO) were calculated as FO=1.69×VO2−1.69×VCO2 and CHO=4.57×VCO2−3.23×VO2 and expressed as g/d/kg^eff.Mass.

mice [4] = test: Antagonizing cannabinoid (HU-210)-induced hypomotility; type: in vivo, mouse; settings: for increase in immobility induced by HU-210: HU-210 30 μg/kg ip, rimonabant 10 mg/kg ip, BNS-002 10, 20 and 50 mg/kg
Procedure: (§2) Locomotor activity. Locomotor activity was quantified by the number of disruptions of infrared XYZ beam arrays with a beam spacing of 0.25 cm in the Promethion High-Definition Behavioral Phenotyping System (Sable Instruments, Inc., Las Vegas, NV, USA).
Antagonizing cannabinoid-induced hypomotility. The ability of the different compounds to inhibit the hypomotility induced by HU210 (cannabinoid agonist) was evaluated. […] A half an hour thereafter, mice received a single dose of HU210 (30 ug/kg, IP) and their locomotor activity was evaluated as described above.

[5] = tested on: mice with diet-induced obesity (DIO); test: HFD-induced hepatic steatosis and liver injury; type: in vivo, mouse; settings: for HFD-induced hepatic steatosis (fat vacuoles in the liver): DIO mice, 10 mg/kg/d ip
Procedure: as §1
Histopathological Analyses. 5 μm paraffin-embedded liver sections from 5 animals per group were stained with hematoxylin-eosin staining. Liver images were captured with a Zeiss AxioCam ICc5 color camera mounted on a Zeiss Axio Scope.A1 light microscope and taken from 10 random 40× fields of each animal.

mice [6] = test: Centrally-mediated hyperactivity / activity profile; type: in vivo, mouse; settings: for activity profile / hyperactivity vs vehicle group: single dose IP: rimonabant 10, TMP 35, EST 40, IDB 20 mg/kg
Procedure: as §2
as §2, with “Centrally-mediated hyperactivity profile. […] Mice were placed in metabolic cages and their activity profile was evaluated.” for “Locomotor activity.”

CB1 receptor [7] = target: T1, CB1 receptor (Mus musculus, UniProt P47746); test: [3H]CP-55,940 radioligand displacement assay; type: binding
T1 construct: crude membranes from mouse brain for CB1 receptor; from tissue; host or cells: mouse brain membranes (crude / P2)
T1 sequence (P47746 whole entry): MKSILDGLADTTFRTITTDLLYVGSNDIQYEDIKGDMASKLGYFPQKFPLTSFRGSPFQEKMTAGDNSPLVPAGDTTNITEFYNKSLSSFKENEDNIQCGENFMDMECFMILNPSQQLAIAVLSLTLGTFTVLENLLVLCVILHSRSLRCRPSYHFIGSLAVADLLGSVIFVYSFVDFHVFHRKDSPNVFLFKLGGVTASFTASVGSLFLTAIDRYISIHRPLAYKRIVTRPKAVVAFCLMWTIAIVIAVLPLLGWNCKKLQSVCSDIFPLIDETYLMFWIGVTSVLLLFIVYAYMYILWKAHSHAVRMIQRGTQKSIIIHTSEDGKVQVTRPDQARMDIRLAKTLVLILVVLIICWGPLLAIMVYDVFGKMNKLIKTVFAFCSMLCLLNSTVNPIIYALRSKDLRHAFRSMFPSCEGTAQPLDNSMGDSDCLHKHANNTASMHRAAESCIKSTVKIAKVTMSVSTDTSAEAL
Procedure: Radioligand binding assays. BNS-002 binding to CB1 receptor was assessed in competition displacement assays using [^3H]CP-55,940 as the radioligand and crude membranes from mouse brain for CB1 receptor. All data were in triplicates with Ki values determined from three independent experiments.
Radioligand binding assay. Binding of the tested compounds to CB1 receptor was assessed in competition displacement assays using [3H]CP-55,940 as the radioligand and crude membranes from mouse brain for CB1 receptor. Membranes were extracted according to an established protocol previously described by Catani V. M. and Gasperi V.. Compounds were tested at different concentrations (10-5M-10-11M) and their ability to displace [3H]CP-55,940 was evaluated. Membranes with bound [3H]CP-55,940 were separated and washed from free ligand by vacuum filtration and bound [3H]CP-55,940 radioactivity was measured using a […]. All data were in triplicates with Ki values extracted by nonlinear regression analysis using GraphPad Prism software.

CB1 receptor [8] = target: T1, CB1 receptor; test: [35S]GTPγS binding in mouse brain membranes; type: biochemical
Procedure: [^35S]GTPγS binding. Mouse brains were dissected and P2 membranes prepared and resuspended at ˜6 μg protein/μL in 1 ml assay buffer (50 mM Tris HCl, 9 mM MgCl2, 0.2 mM EGTA, 150 mM NaCl; pH 7.4). […] Briefly, membranes (10 μg protein) were incubated in assay buffer containing 100 μM GDP, 0.05 nM [^35S]GTPγS, test compounds at 1 nM-1 μM, and 1.4 mg/mL fatty acid-free BSA in siliconized glass tubes. Bound ligand was separated from free by vacuum filtration. Non-specific binding was determined using 10 μM GTPS. Basal binding was assayed in the absence of the ligand and in the presence of GDP.

[9] = tested on: mice with diet-induced obesity (DIO); test: Serum lipids (dyslipidemia) in DIO mice; type: in vivo, mouse; settings: 20 mg/kg/day for 20 days
Procedure: as §1

[10] = tested on: mice with diet-induced obesity (DIO); test: HFD-induced kidney hyperfiltration; type: in vivo, mouse
Procedure: as §1

[11] = Tissue levels of antagonists (brain penetrance); type: in vivo, mouse; settings: mice, 3 and 10 mg/kg ip, 1 hour
Procedure: Tissue levels of antagonists. […] Blood was collected, and the mice were perfused with phosphate buffered saline for 1 min to remove drug from the intravascular space before removing the brain and liver. Drug levels in tissue homogenates and plasma were determined by using LC-MS/MS.

[12] = 7 days, rimonabant 10 mg/kg/d, BNS-002 30 mg/kg ip
[13] = mice on high-fat diet, 20 mg/kg/day for 20 days
[14] = DIO mice, 20 mg/kg/day for 20 days
[15] = [3H]CP-55,940, crude membranes from mouse brain, read-out: Ki for CB1 receptor

Cc1c(C(=O)NN2CCCCC2)nn(-c2ccc(Cl)cc2Cl)c1-c1ccc(Cl)cc1 [rimonabant, reference compound]
HFD-induced glucose intolerance [1]: completely reversed | HFD-induced hyperglycemia [1]: completely reversed | increased adiposity of mice on HFD ([2]; 10 mg/kg/d ip, 28 days): significantly reduced | overweight of mice on HFD ([2]; 10 mg/kg/d ip, 28 days): significantly reduced | overweight of mice on HFD [2, 12]: significantly reduced | total caloric intake ([2]; DIO mice, 10 mg/kg/d ip): ability to reduce | HFD-induced reduction in VO2 [3]: upregulate | HFD-induced reduction in fat oxidation [3]: upregulate | HFD-induced reduction in total energy expenditure [3]: upregulate | hypomotility induced by HU210 (mice [4]; HU210 30 ug/kg IP, rimonabant 10, TMP 35, EST 40, IDB 20 mg/kg IP): significantly blocked | increase in immobility induced by HU-210 (mice [4]): completely blocked | HFD-induced hepatic steatosis (fat vacuoles in the liver) [5]: completely reversed | activity profile in mice (mice [6]; rimonabant 10 mg/kg ip, BNS-002 10, 20 and 50 mg/kg ip): marked increase | activity profile / hyperactivity vs vehicle group (mice [6]): marked increase

Cc1c(C(=O)NC2CC(C)(C)N([O])C(C)(C)C2)nn(-c2ccc(Cl)cc2Cl)c1-c1ccc(Cl)cc1 [TMP, 5-(4-chlorophenyl)-1-(2,4-dichlorophenyl)-4-methyl-N-(2,2,6,6-tetramethyl-1-oxo-1-piperidin-4-yl)-1H-pyrazole-3-carboxamide]
activity profile / hyperactivity vs vehicle group (mice [6]): no significant hyperactivity | Ki (CB1 receptor [7]): 1.69 to 446 nM

COC1=C(OC)C(=O)C(CCCCCCCCCCOC(=O)c2nn(-c3ccc(Cl)cc3Cl)c(-c3ccc(Cl)cc3)c2C)=C(C)C1=O [IDB, 10-(4,5-dimethoxy-2-methyl-3,6-dioxocyclohexa-1,4-dien-1-yl)decyl 5-(4-chlorophenyl)-1-(2,4-dichlorophenyl)-4methyl-1H-pyrazole-3-carboxylate]
functional profile by GTPγS binding (inverse agonism) (CB1 receptor [8]): inverse agonism profile | dyslipidemia in DIO mice [9]: improve | HDL ([9]; DIO mice): reduce | HDL-to-LDL ratio ([9]; DIO mice): increase | LDL ([9]; DIO mice): reduce | total cholesterol ([9]; DIO mice): reduce | triglycerides ([9]; DIO mice): reduce | fasting glucose levels [1, 13]: reduced | fed glucose levels [1, 13]: reduced | glucose tolerance [1, 13]: reduced | glycosuria [1, 13]: increases | insulin sensitivity [1, 13]: improved | body weight [2, 14]: reduced | daily and total food intake [2, 14]: reduced | fat mass [2, 14]: reduced | lean mass [2, 14]: increased | metabolic parameters (respiratory quotient, VO2, VCO2, total energy expenditure, fat oxidation, carbohydrate oxidation) ([3]; 20 mg/kg/day for 20 days, over a 24 hr period): significant changes | HFD-induced hepatic steatosis and liver injury ([5]; 20 mg/kg/day for 20 days): reduce | liver enzymes (AST, ALT, and ALP) ([5]; 20 mg/kg/day for 20 days): reduction | liver weight ([5]; 20 mg/kg/day for 20 days): decrease | activity profile / hyperactivity vs vehicle group (mice [6]): no significant hyperactivity | HFD-induced kidney hyperfiltration ([10]; IDB, compared to the control): no effect | Ki (CB1 receptor [7]; [3H]CP-55,940, crude membranes from mouse brain, range of Ki values (FIGS. 12-14), read-out: Ki values varying for each substance, ranging from): 1.9 to 135 nM | Ki (CB1 receptor [7]; [15]): 256 nM

Cc1c(C(=O)OC2CC(C)(C)N([O])C(C)(C)C2)nn(-c2ccc(Cl)cc2Cl)c1-c1ccc(Cl)cc1 [EST, 2,2,6,6-tetramethyl-1-piperidin-4-yl 5-(4-chlorophenyl)-1-(2,4-dichlorophenyl)-4-methyl-1H-pyrazole-3-carboxylate]
activity profile / hyperactivity vs vehicle group (mice [6]): no significant hyperactivity | Ki (CB1 receptor [7]): 0.37 to 7.81 nM

CCCCCCCCCCCCCCCCCCNC(=O)c1nn(-c2ccc(Cl)cc2Cl)c(-c2ccc(Cl)cc2)c1C [BNS-002, 5-(4-chlorophenyl)-1-(2,4-dichlorophenyl)-4-methyl-N-octadecyl-1H-pyrazole-3-carboxamide]
functional profile by GTPγS binding (inverse agonism) (CB1 receptor [8]): inverse agonist | GTPγS binding in mouse brain membranes (CB1 receptor [8]; compound alone): reduces GTPγS binding | action of the potent CB1 receptor agonist HU-210 on GTPγS binding (CB1 receptor [8]; with HU-210): able to ameliorate | brain levels [11]: reduced | brain penetrance [11]: markedly reduced | serum levels [11]: increased | HFD-induced glucose intolerance [1]: completely reversed | HFD-induced hyperglycemia [1]: completely reversed | increased adiposity of mice on HFD ([2]; 10 mg/kg/d ip, 28 days): significantly reduced by rimonabant only | overweight of mice on HFD ([2]; 10 mg/kg/d ip, 28 days): significantly reduced by rimonabant only | body weight reduction ([2]; 7 days, BNS-002 15 mg/kg ip): no effect | overweight of mice on HFD [2, 12]: significantly reduced | HFD-induced reduction in VO2 [3]: upregulate | HFD-induced reduction in fat oxidation [3]: upregulate | HFD-induced reduction in total energy expenditure [3]: upregulate | increase in immobility induced by HU-210 (mice [4]): unaffected | HFD-induced hepatic steatosis (fat vacuoles in the liver) [5]: partially | HFD-induced kidney hyperfiltration ([10]; BNS-002): completely normalized | Ki (CB1 receptor [7]; [15]): 4.96 nM | affinity for CB1 receptor (in words) (CB1 receptor [7]; radioligand displacement): retains high affinity and selectivity
